Test results from US8604243B2, “Fluorescent ion indicators for cadmium and lanthanide ion detection” (Life Technologies Corporation, priority 2005, dated 2013).

Assays:
Assay type in all cases: binding
[1] = Fluorescence titration of indicator with lead ions; details: for Kd: Table 3 binding constant, read-out: Kd Pb^2+; for F = F(bind)/F0, Pb^2+: fluorescent response to binding, in brackets
Protocol: (§1) A dye stock (5.0×10^−4 M) solution of Compound 109 was prepared in DMSO. Lanthanide, Lead, cadmium and mercury ion solutions from 0-40 nM were prepared in disposable cuvettes by diluting a 100 mM metal ion stock solutions to a final volume of 2 mL with 100 mM MOPS (pH7). For the lanthanide titration, dye stock was diluted to give a final concentration of 50 nM. For the cadmium titration, dye stock was added to give a final concentration of 2.5×10^−7 M. For the mercury titrations, dye stock was added to give a final concentration of 2.5×10^−7 M. Samples were excited at 492 nm and fluorescence was recorded at 517 nm.

[2] = Fluorescence titration of indicator with manganese ions; details: for Kd: Table 3 binding constant, read-out: Kd Mn^2+; for F = F(bind)/F0, Mn^2+: fluorescent response to binding, in brackets
[3] = Fluorescence titration of indicator with calcium ions; details: for Kd: Table 3 binding constant, read-out: Kd Ca^2+; for F = F(bind)/F0, Ca^2+: fluorescent response to binding, in brackets
[4] = Fluorescence titration of indicator with lanthanide ions in cuvettes; details: for F = F(bind)/F0, La^3+: fluorescent response to binding, in brackets
Protocol: as §1

[5] = Fluorescence titration of indicator with zinc ions; details: for Kd: Table 3 binding constant, read-out: Kd Zn^2+; for F = F(bind)/F0, Zn^2+: fluorescent response to binding, in brackets
[6] = Fluorescence titration of indicator with cadmium ions in cuvettes; details: for F = F(bind)/F0, Cd^2+: fluorescent response to binding, in brackets
Protocol: as §1

[7] = Fluorescence titration of indicator with mercury ions in cuvettes
Protocol: as §1

[8] = Table 3 binding constant, read-out: Kd La^3+
[9] = Table 3 binding constant, read-out: Kd Cd^2+

Compound: O=C([O-])CN(CC(=O)O)c1ccc(C2=c3cc4c5c(c3Oc3c2cc2c6c3CCCN6CCC2)CCC[N+]=5CCC4)cc1OCCOCCOc1ccccc1N(CC(=O)O)CC(=O)O [Compound 115]
- Kd [1]: 0.189 µM
- F = F(bind)/F0, Pb^2+ [1]: 33
- Kd [2]: 136 µM
- F = F(bind)/F0, Mn^2+ [2]: 2.5
- Kd [3]: 67.8 µM
- F = F(bind)/F0, Ca^2+ [3]: 114
- Kd [4, 8]: 0.352 µM
- F = F(bind)/F0, La^3+ [4]: 32
- Kd [5]: 28.6 µM
- F = F(bind)/F0, Zn^2+ [5]: 20
- Kd [6, 9]: 0.331 µM

Compound: CN(C)c1ccc2c(-c3ccc(N(CC(=O)[O-])CC(=O)O)c(OCCOCCOc4ccccc4N(CC(=O)O)CC(=O)O)c3)c3ccc(=[N+](C)C)cc-3oc2c1 [Compound 112]
- Kd [1]: 5.44 µM
- F = F(bind)/F0, Pb^2+ [1]: 29
- Kd [2]: 80.2 µM
- F = F(bind)/F0, Mn^2+ [2]: 1.82
- Kd [3]: 44.9 µM
- F = F(bind)/F0, Ca^2+ [3]: 161
- Kd [4, 8]: 0.359 µM
- F = F(bind)/F0, La^3+ [4]: 36
- Kd [5]: 35.8 µM
- F = F(bind)/F0, Zn^2+ [5]: 17
- Kd [6, 9]: 0.395 µM
- F = F(bind)/F0, Cd^2+ [6]: 39

Compound: O=C([O-])CN(CC(=O)[O-])c1ccccc1OCCOCCOc1cc(-c2c3cc(F)c(=O)cc-3oc3cc([O-])c(F)cc23)ccc1N(CC(=O)[O-])CC(=O)[O-].[K+].[K+].[K+].[K+].[K+] [Compound 109]
- Kd [1]: 38.9 µM
- F = F(bind)/F0, Pb^2+ [1]: 20
- Kd [3]: 21.4 µM
- F = F(bind)/F0, Ca^2+ [3]: 68
- Kd ([4]; 100 mM MOPS pH7, dye 50 nM, excited 492 nm, recorded 517 nm, read-out: Kd lanthanide (La(III))): 0.0103 µM
- Kd [4, 8]: 0.01 µM
- F = F(bind)/F0, La^3+ [4]: 47
- Kd [5]: 27.1 µM
- F = F(bind)/F0, Zn^2+ [5]: 8.8
- Kd ([7]; 100 mM MOPS pH7, dye 2.5×10^−7 M, excited 492 nm, recorded 517 nm, read-out: Kd mercury (Hg2+)): 2.16 µM
- Kd ([7]; Table 3 binding constant, read-out: Kd Hg^2+): 2.16 µM
- F = F(bind)/F0, Hg^2+ ([7]; fluorescent response to binding, in brackets): 20
- Kd ([6]; 100 mM MOPS pH7, dye 2.5×10^−7 M, excited 492 nm, recorded 517 nm, read-out: Kd cadmium (Cd(II))): 0.061 µM
- Kd [6, 9]: 0.061 µM
- F = F(bind)/F0, Cd^2+ [6]: 11
